Values of other authors as cited in US20230104358A1 (priority 2021, published 2023).

Legend:
[1] = target: dopamine Type 2 (D2) receptor (Homo sapiens, UniProt P14416)
[2] = tested on: α1 adrenergic receptor
[3] = tested on: α2 adrenergic receptor
[4] = target: T1, serotonin 5HT1C receptor (Homo sapiens, UniProt P28335)
T1 sequence (P28335 33-458): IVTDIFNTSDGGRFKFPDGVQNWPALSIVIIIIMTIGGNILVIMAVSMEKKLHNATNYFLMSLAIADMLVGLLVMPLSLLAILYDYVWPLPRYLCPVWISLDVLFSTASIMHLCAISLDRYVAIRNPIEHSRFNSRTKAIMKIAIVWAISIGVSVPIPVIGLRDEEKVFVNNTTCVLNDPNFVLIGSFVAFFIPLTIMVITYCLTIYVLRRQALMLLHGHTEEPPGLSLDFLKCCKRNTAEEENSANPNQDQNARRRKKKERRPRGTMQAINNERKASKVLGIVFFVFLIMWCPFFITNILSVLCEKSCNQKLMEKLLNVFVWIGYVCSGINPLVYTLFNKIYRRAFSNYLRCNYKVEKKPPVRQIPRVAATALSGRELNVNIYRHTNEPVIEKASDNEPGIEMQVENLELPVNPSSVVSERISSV

[5] = target: serotonin 5HT1D receptor (Homo sapiens, UniProt P28221)
Sequence of serotonin 5HT1D receptor (P28221 whole entry): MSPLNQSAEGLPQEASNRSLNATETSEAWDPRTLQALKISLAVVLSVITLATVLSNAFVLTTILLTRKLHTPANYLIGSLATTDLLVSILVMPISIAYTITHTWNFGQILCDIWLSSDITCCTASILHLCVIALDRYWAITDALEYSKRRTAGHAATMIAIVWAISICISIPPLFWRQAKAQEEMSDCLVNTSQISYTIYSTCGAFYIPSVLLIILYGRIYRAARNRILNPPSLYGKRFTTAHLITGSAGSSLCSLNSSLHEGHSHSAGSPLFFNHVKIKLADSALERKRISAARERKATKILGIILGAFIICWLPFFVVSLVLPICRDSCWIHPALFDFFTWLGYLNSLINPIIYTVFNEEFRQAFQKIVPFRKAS

[6] = target: T2, serotonin 5HT1A receptor (Homo sapiens, UniProt P08908)
T2 sequence (P08908 1-422): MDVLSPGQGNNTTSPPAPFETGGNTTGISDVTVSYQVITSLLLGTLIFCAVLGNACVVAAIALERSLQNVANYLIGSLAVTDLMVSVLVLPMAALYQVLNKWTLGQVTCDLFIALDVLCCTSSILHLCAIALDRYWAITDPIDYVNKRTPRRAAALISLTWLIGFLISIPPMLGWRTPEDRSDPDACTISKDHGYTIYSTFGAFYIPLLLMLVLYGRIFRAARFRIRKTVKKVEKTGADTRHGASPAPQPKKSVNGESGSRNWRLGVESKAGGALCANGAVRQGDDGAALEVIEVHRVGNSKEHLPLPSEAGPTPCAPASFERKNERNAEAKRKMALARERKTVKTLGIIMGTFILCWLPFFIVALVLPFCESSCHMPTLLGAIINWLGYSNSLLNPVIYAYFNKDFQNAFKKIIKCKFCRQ

[7] = target: dopamine D1 (Homo sapiens, UniProt P21728)
Sequence of dopamine D1 (P21728 whole entry): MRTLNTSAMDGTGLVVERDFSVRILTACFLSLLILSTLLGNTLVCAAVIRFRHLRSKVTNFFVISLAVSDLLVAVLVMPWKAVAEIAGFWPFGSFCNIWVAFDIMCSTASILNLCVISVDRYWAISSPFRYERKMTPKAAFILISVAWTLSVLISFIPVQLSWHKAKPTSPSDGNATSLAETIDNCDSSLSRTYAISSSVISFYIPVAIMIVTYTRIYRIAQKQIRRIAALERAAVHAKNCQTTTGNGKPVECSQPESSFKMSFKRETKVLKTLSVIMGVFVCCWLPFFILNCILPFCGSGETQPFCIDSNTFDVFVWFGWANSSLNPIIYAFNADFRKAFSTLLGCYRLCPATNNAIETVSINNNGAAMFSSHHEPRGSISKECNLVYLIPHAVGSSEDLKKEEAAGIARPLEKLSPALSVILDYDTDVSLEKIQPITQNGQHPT

[8] = tested on: haloperidol-sensitive sigma site
[9] = target: β1 adrenergic receptor (Homo sapiens, UniProt P08588)
Sequence of β1 adrenergic receptor (P08588 whole entry): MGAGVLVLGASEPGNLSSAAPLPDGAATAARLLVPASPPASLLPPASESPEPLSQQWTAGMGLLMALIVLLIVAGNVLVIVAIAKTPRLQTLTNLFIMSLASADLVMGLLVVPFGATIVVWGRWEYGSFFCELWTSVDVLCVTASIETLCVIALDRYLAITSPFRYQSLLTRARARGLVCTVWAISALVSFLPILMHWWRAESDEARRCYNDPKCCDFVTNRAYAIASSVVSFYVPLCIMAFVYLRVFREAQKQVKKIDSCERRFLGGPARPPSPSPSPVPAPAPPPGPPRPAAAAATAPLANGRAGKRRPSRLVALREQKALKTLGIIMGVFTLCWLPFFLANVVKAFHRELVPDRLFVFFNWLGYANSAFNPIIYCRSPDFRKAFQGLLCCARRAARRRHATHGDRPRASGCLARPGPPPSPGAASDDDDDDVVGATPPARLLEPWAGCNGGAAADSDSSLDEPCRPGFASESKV

[10] = target: β2 adrenergic receptor (Homo sapiens, UniProt P07550)
Sequence of β2 adrenergic receptor (P07550 whole entry): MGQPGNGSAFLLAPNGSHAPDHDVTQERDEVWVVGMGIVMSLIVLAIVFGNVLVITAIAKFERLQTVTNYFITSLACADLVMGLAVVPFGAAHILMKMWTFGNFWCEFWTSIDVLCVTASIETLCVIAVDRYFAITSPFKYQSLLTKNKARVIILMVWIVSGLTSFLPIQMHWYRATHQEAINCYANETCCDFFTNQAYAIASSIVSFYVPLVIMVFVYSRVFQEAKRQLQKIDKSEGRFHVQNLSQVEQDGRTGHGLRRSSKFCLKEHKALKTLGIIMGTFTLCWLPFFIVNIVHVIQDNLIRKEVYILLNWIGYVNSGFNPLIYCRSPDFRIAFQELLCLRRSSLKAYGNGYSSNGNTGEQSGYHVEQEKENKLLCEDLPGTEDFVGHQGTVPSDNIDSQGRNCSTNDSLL

Sequence of dopamine Type 2 (D2) receptor (P14416 whole entry): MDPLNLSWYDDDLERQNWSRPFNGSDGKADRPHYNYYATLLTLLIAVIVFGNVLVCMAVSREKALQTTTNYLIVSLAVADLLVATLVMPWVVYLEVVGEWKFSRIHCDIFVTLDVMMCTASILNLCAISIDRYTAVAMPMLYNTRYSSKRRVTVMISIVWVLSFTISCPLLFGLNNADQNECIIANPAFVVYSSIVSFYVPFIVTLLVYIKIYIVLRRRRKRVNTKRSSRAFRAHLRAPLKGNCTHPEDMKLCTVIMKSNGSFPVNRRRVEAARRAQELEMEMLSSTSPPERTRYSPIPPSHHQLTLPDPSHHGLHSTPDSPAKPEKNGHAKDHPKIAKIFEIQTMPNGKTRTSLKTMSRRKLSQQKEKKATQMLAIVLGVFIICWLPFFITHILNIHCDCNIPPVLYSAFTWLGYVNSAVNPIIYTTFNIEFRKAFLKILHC

Cc1nc2n(c(=O)c1CCN1CCC(c3noc4cc(F)ccc34)CC1)CCCC2 [Risperidone]
affinity for dopamine Type 2 (D2) receptor [1]: high affinity
affinity for α1 adrenergic receptor [2]: high affinity
affinity for α2 adrenergic receptor [3]: high affinity
affinity for serotonin 5HT1C receptor [4]: low to moderate affinity
affinity for serotonin 5HT1D receptor [5]: low to moderate affinity
affinity for serotonin 5HT1A receptor [6]: low to moderate affinity
affinity for dopamine D1 [7]: weak affinity
affinity for haloperidol-sensitive sigma site [8]: weak affinity
affinity for β1 adrenergic receptor [9]: no affinity
affinity for β2 adrenergic receptor [10]: no affinity
